Patent publication US20150119395A1, “NOVEL TRIAZOLE COMPOUNDS THAT MODULATE HSP90 ACTIVITY” (SYNTA PHARMACEUTICALS CORP., priority 2012, published 2015)

Test system: Her2
Assay: Degradation of Her2 in BT-474 cells, SDS-PAGE/immunoblot, Method 1
Assay type: cell-based, human
Settings: 0.5 μM, overnight in DMEM medium
Description: BT-474 cells were treated with 0.5 μM, 2 μM, or 5 μM of 17AAG (a positive control) or 0.5 μM, 2 μM, or 5 μM of a compound of the invention overnight in DMEM medium. After treatment, each cytoplasmic sample was prepared from 1×10^6 cells by incubation of cell lysis buffer (#9803, Cell Signaling Technology) on ice for 10 minutes. The resulting supernatant used as the cytosol fractions was dissolved with sample buffer for SDS-PAGE and run on a SDS-PAGE gel, blotted onto a nitrocellulose membrane by using semi-dry transfer. Non-specific binding to nitrocellulose is blocked with 5% skim milk in TBS with 0.5% Tween at room temperature for 1 hour, then probed with anti-Her2/ErB2 mAb (rabbit IgG, #2242, Cell Signaling) and anti-Tubulin (T9026, Sigma) as housekeeping control protein. HRP-conjugated goat anti-rabbit IgG (H+L) and HRP-conjugated horse anti-mouse IgG (H+L) were used as secondary Ab (#7074, #7076, Cell Signaling) and LumiGLO reagent, 20× Peroxide (#7003, Cell Signaling) is used for visualization.
BT-474 cells were treated with 0.5 μM, 2 μM, or 5 μM of 17AAG (a positive control) or 0.5 μM, 2 μM, or 5 μM of a compound of the invention overnight in DMEM medium. After treatment, each cytoplasmic sample was prepared from 1×10^6 cells by incubation of cell lysis buffer (#9803, Cell Signaling Technology) on ice for 10 minutes. […]

## C=CCNC1=C2C[C@@H](C)C[C@H](OC)[C@H](O)[C@@H](C)/C=C(\C)[C@H](OC(N)=O)[C@@H](OC)/C=C\C=C(/C)C(=O)NC(=CC1=O)C2=O [Compound 17AAG, 17-allylamino-17-demethoxygeldanamycin]
  Degradation of Her2 (Western blot): partial degradation
